Among the test systems are SF-539 CNS; MDA-MB-435; SK-OV-3 ovarian; SF-295 CNS; M14 melanoma; OVCAR-3 ovarian; A549 NSCLC; CCRF-CEM leukemia; BT-549 breast; HCC-2998 colon.
Holding throughout (experiment): inhibition of tumour cell growth, NCI panel, 48 h

Each structure is given as a SMILES string.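 Briefly, cells in 96-well plates were exposed to five compound concentrations for 48 h, and endpoints were estimated by linear interpolation. Abbreviation: GI50, concentration required for 50% inhibition of growth. TGI denotes the concentration required for complete inhibition of growth.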

In the case of `CC1(C)CC[C@]2(C(=O)O)CC[C@]3(C)[C@H](C(=O)C=C4[C@@]5(C)C=C(C#N)C(=O)C(C)(C)[C@@H]5CC[C@]43C)[C@@H]2C1`, the TGI amounted to 4.05 µM in the experiment on SF-539 CNS; 3 µM in the experiment on MDA-MB-435; 14.8 µM with SK-OV-3 ovarian; 1.97 µM in the experiment with SF-295 CNS; 4.32 µM in the experiment on M14 melanoma; 0.785 µM in the experiment on OVCAR-3 ovarian. Moreover, the TGI in the experiment with A549 NSCLC is 5.86 µM; in the experiment on CCRF-CEM leukemia it was above 100 µM; in the experiment on BT-549 breast, 4.11 µM.
On to `O=C1C2C=CC(n3[nH]c(=O)n(Cc4ccccc4)c3=O)CC2C(=O)N1c1ccc(Br)cc1` (stereo unspecified), for which the TGI in the experiment with SF-539 CNS, with SK-OV-3 ovarian, in the experiment with SF-295 CNS, in the experiment with M14 melanoma, in the experiment on OVCAR-3 ovarian and in the experiment with A549 NSCLC was above 100 µM in each case. Besides, the TGI with CCRF-CEM leukemia and with HCC-2998 colon was above 100 µM in each case.
Turning to `O=C(N=Nc1ccccc1Cl)NNc1ccccc1Cl`, the TGI in the experiment on MDA-MB-435 is above 100 µM; in the experiment with M14 melanoma, above 100 µM; in the experiment on OVCAR-3 ovarian, 95.3 µM; in the experiment with A549 NSCLC, above 100 µM; with CCRF-CEM leukemia, 53.6 µM; in the experiment on HCC-2998 colon, 94.1 µM.
Turning to `CCOC(=O)C1=C(O)c2ccc(C)cc2C(=O)C1=O`, the TGI in the experiment on SF-539 CNS, in the experiment on SK-OV-3 ovarian, with SF-295 CNS, in the experiment with M14 melanoma, with OVCAR-3 ovarian and in the experiment with A549 NSCLC was above 100 µM in each case. The TGI in the experiment on CCRF-CEM leukemia and with HCC-2998 colon was above 100 µM in each case.
On to `CC1(C)O[C@@H](C[C@]2(C#N)C[C@H](CCl)OC(C)(C)O2)C[C@@H](C#N)O1`, for which the TGI in the experiment on SF-539 CNS, in the experiment with SK-OV-3 ovarian, with SF-295 CNS, with M14 melanoma, with OVCAR-3 ovarian and with A549 NSCLC was above 100 µM throughout. Besides, the TGI in the experiment on CCRF-CEM leukemia and in the experiment with HCC-2998 colon was above 100 µM throughout.
Take `CCCCN(C)/N=N/c1nc[nH]c1C(N)=O`: the TGI in the experiment with SF-539 CNS, in the experiment on SK-OV-3 ovarian, in the experiment on SF-295 CNS, in the experiment with OVCAR-3 ovarian, with A549 NSCLC and in the experiment on CCRF-CEM leukemia was above 100 µM throughout. For the same molecule, in the experiment with HCC-2998 colon, the TGI is above 100 µM.
In the case of `[N-]=[N+]=NCC(O)Cn1cnc2c(NC(=O)c3ccccc3)ncnc21` (stereo unspecified), the TGI in the experiment with SF-539 CNS, with SF-295 CNS, in the experiment on M14 melanoma, in the experiment on A549 NSCLC, in the experiment with CCRF-CEM leukemia and in the experiment on HCC-2998 colon was above 100 µM in each case.
Turning to `COC(=O)Nc1nc2ccc(NC(=O)c3ccc(I)cc3)cc2[nH]1`, the TGI in the experiment with SF-539 CNS, with MDA-MB-435, with SK-OV-3 ovarian, with SF-295 CNS, in the experiment with M14 melanoma and with OVCAR-3 ovarian was above 100 µM in each case. In addition, the TGI in the experiment with A549 NSCLC, in the experiment with CCRF-CEM leukemia and in the experiment on BT-549 breast was above 100 µM in each case.
For `S=C1SC(=Nc2ccccc2)C(=Nc2ccccc2)N1c1ccc2ccccc2c1`, the TGI in the experiment with MDA-MB-435, in the experiment with SK-OV-3 ovarian, in the experiment with SF-295 CNS, in the experiment on M14 melanoma, with OVCAR-3 ovarian and with CCRF-CEM leukemia was above 100 µM each time. The TGI with HCC-2998 colon and in the experiment on BT-549 breast was above 100 µM in each case.
For `COc1ccc(Oc2ccccc2N)cc1`, the TGI with SF-539 CNS was 57.3 µM; with SK-OV-3 ovarian it was above 100 µM; in the experiment with SF-295 CNS, above 100 µM; in the experiment on M14 melanoma, above 100 µM; in the experiment with OVCAR-3 ovarian, above 100 µM; in the experiment on A549 NSCLC, above 100 µM. Also, the TGI with CCRF-CEM leukemia is above 100 µM; in the experiment on HCC-2998 colon, 57.1 µM.
In the case of `CSc1cnc2ccccc2c1Sc1c[nH]c2ccccc2c1=O`, the TGI with SF-539 CNS is 31.1 µM; in the experiment with SK-OV-3 ovarian, 14.8 µM; in the experiment with SF-295 CNS, above 46.7 µM; in the experiment with M14 melanoma, 27.2 µM; in the experiment with OVCAR-3 ovarian it was 22 µM; with A549 NSCLC it was 24.8 µM. Moreover, the results for the TGI in the experiment with CCRF-CEM leukemia and with HCC-2998 colon were above 87.3 µM and 29.5 µM, respectively.
For `CC(C)(C)C1=C(Br)C(O)(C(C)(C)C)OP1(=O)c1ccccc1` (stereo unspecified), the TGI in the experiment on SF-539 CNS, with MDA-MB-435, in the experiment on SK-OV-3 ovarian, with SF-295 CNS, with OVCAR-3 ovarian and in the experiment with A549 NSCLC was above 100 µM throughout. Moreover, the TGI with CCRF-CEM leukemia and in the experiment with HCC-2998 colon was above 100 µM in each case.
With `CCC(=O)OC1CCn2c1nc1c2C(=O)C(C)=C(NC(C)=O)C1=N` (stereo unspecified), the TGI was found to be 3.21 µM in the experiment with SF-539 CNS; 6.82 µM in the experiment on SK-OV-3 ovarian; 4.12 µM in the experiment on SF-295 CNS; 3.31 µM in the experiment with OVCAR-3 ovarian; 10.2 µM with A549 NSCLC; 13 µM with HCC-2998 colon.
For the molecule `COc1cc2nc(-c3cccs3)nc(Nc3cccc(Cl)c3)c2cc1OC`, the TGI with SF-539 CNS was above 100 µM; in the experiment with MDA-MB-435, above 100 µM; in the experiment on SK-OV-3 ovarian, above 100 µM; in the experiment with SF-295 CNS it was 69.2 µM; in the experiment with M14 melanoma it was above 100 µM; with OVCAR-3 ovarian it was above 100 µM. In addition, the TGI in the experiment on A549 NSCLC, with CCRF-CEM leukemia and in the experiment with BT-549 breast was above 100 µM in each case.
Take `COc1cc(N(CCC#N)CCC#N)ccc1/C=N\NC(=O)c1ccc(C)cc1`: the TGI in the experiment on SF-539 CNS, with MDA-MB-435, in the experiment with SK-OV-3 ovarian, in the experiment with SF-295 CNS, in the experiment with M14 melanoma and with OVCAR-3 ovarian was above 100 µM in each case. For the same molecule, the TGI in the experiment on A549 NSCLC, in the experiment on CCRF-CEM leukemia and in the experiment with BT-549 breast was above 100 µM each time.
Take `COc1ccc(C(=O)/C=C/c2cc(-c3cc(OC)c(OC)c(OC)c3)n[nH]2)cc1`: the GI50 with SF-539 CNS is 1.62 µM; with MDA-MB-435, 2.2 µM; in the experiment with SK-OV-3 ovarian, 3.99 µM; in the experiment with M14 melanoma, 2.2 µM; in the experiment with OVCAR-3 ovarian it was 1.74 µM; in the experiment with CCRF-CEM leukemia, 1.42 µM. Further, in the experiment with HCC-2998 colon, the GI50 was 1.78 µM. Further, the TGI turned out to be 3.08 µM with SF-539 CNS; 5.7 µM in the experiment on MDA-MB-435; 20.5 µM in the experiment with SK-OV-3 ovarian; 4.93 µM with M14 melanoma; 3.56 µM with OVCAR-3 ovarian; 5.85 µM in the experiment on CCRF-CEM leukemia. Also, the TGI in the experiment with HCC-2998 colon amounted to 3.4 µM.
